The values that follow come from paper PMC12454871, “Embedding a feruloyl esterase active site into a thermophilic endoxylanase scaffold for the degradation of feruloylated xylans” (Computational and Structural Biotechnology Journal, 2025).

The target in experiment [1] is T1, Xyn11 (Pseudothermotoga thermarum, UniProt F7YXD6, L292S/K296H, form not given).
T1 construct: gene Theth_1636; GH10 single-domain TIM barrel, 342 residues; all rows are the designed double mutant Xyn11m1
As to the kind of experiment: X-ray crystallography, […] Å. It is filed as binding. To be noted: native xylanase active site (E144/E251); trapped expression inducer.

Experiment [2] addresses T1, Xyn11. As to the kind of experiment: phenol red pH-indicator esterase assay, absorbance […] nm. It is filed as biochemical. Conditions: pH 8.0, 90 °C, 5 mM EPPS, 50 mM NaCl; engineered Ser271-His275-Glu272 esterase site.

T1 sequence (F7YXD6 entry or part of it L292S/K296H, form open): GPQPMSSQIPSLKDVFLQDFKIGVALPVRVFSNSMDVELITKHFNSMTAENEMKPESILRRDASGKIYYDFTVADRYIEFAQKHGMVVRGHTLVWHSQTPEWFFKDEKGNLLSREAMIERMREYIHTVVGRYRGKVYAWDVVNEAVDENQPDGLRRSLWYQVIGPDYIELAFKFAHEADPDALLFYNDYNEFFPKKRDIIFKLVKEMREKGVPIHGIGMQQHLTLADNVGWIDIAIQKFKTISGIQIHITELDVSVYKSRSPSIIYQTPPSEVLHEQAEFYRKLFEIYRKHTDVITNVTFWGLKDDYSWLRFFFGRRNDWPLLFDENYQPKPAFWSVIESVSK

As for `CC(C)S[C@@H]1O[C@H](CO)[C@H](O)[C@H](O)[C@H]1O` [IPTG], the “X-ray crystallography, 2.1 Å” value in experiment [1] is “E144 and E251 and includes a trapped IPTG molecule”.

Regarding `COC(=O)/C=C/c1ccc(O)c(OC)c1` [methyl ferulate], in experiment [2], the Km was 2900 ± 200 µM.
